The values that follow come from ChEMBL document CHEMBL5046301, “pH-Responsive Antimicrobial Peptide with Selective Killing Activity for Bacterial Abscess Therapy” (J Med Chem, 2022).

Calls of active or inactive are those of the source. No cut-off for these calls is given here. Where only a bound is given, the exact number is not on record here.

For data set [1], the system named is Staphylococcus epidermidis. In words: Antibacterial activity against Staphylococcus epidermidis ATCC 12228 assessed as inhibition of bacterial growth at pH 7.4 incubated for 24 hrs by NCCLS protocol based method. It counts as functional.
Data set [2] deals with Pseudomonas aeruginosa. In words: Antipseudomonal activity against Pseudomonas aeruginosa ATCC 27853 infected in ICR cutaneous abscess mouse model assessed as fold reduction in lesion area at 5 mg/kg,ip administered twice a day measured after 72 hrs relative to control. It is filed as functional.
Another data set has as its system Escherichia coli. The experiment in a line: Antibacterial activity against Escherichia coli ATCC 25922 assessed as inhibition of bacterial growth at pH 7.4 incubated for 24 hrs by NCCLS protocol based method. It is filed as functional.
In data set [3] the test system is Pseudomonas aeruginosa. The experiment in a line: Induction of morphological changes in Pseudomonas aeruginosa ATCC 27853 assessed as disruption in cell membrane at 2 uM at pH 7.4 incubated for 1 hr by SEM analysis. It counts as functional, organism-based.
Data set [4] has as its system Salmonella typhimurium. In words: Antibacterial activity against Salmonella typhimurium ATCC 14028 assessed as inhibition of bacterial growth at pH 6.5 incubated for 24 hrs by NCCLS protocol based method. As to conditions: Salmonella enterica. It is filed as functional, Salmonella enterica subsp. enterica serovar Typhimurium.
Data set [5] has as its system Pseudomonas aeruginosa. The experiment in a line: Antibacterial activity against Pseudomonas aeruginosa ATCC 27853 assessed as inhibition of bacterial growth at pH 7.4 incubated for 24 hrs by NCCLS protocol based method. It counts as functional.
In data set [6] the test system is Salmonella typhimurium. In words: Antibacterial activity against Salmonella typhimurium ATCC 14028 assessed as inhibition of bacterial growth at pH 7.4 incubated for 24 hrs by NCCLS protocol based method. It counts as functional, Salmonella enterica subsp. enterica serovar Typhimurium. As to conditions: Salmonella enterica.
The test system of data set [7] is Pseudomonas aeruginosa. The experiment in a line: Antimicrobial activity against Pseudomonas aeruginosa ATCC 27853 assessed as reduction in bacterial growth at pH 6.5 in presence of NaCl. It counts as functional.
A further data set has as its system Lipopolysaccharide (LPS). In words: Displacement of BODIPY-TR-cadaverin from Pseudomonas aeruginosa ATCC 27316 Lipopolysaccharide at 1 to 64 uM at pH 7.4 incubated for 1 hr by fluorescence based analysis relative to control. As to conditions: dose 1-64 µM.
The test system of data set [8] is Mus musculus. In words: Antiinflammatory activity in ICR cutaneous abscess mouse model assessed as reduction in IL-2 expression in serum at 5 mg/kg,ip administered twice a day measured after 72 hrs by ELISA (reference value: 1.53 +/ 0.06 10^3pg/ml). It is filed as functional. On the technique in general: An ELISA detects its analyte on a solid surface through an enzyme-linked reagent.

Data set [9] concerns Mus musculus. In words: Antiinflammatory activity in ICR cutaneous abscess mouse model assessed as reduction in TNF-alpha expression in serum at 5 mg/kg,ip administered twice a day measured after 72 hrs by ELISA (reference value: 1.01 +/ 0.46 10^3 pg/ml). It counts as functional.
The next data set deals with Staphylococcus aureus. In words: Antibacterial activity against Staphylococcus aureus ATCC 29213 assessed as inhibition of bacterial growth at pH 7.4 incubated for 24 hrs by NCCLS protocol based method. It counts as functional.
Data set [10] can be described thus: Cytotoxicity against mouse RAW264.7 cells assessed as inhibition of cell growth at pH 7.4 measured after 24 hrs by MTT assay. It is filed as toxicity, cell-based. Background: Tetrazolium assays rely on reduction of a dye to a coloured formazan, in cell work by metabolically active cells.
Data set [11] has as its system Pseudomonas aeruginosa. In words: Antimicrobial activity against Pseudomonas aeruginosa ATCC 27853 assessed as reduction in bacterial growth at pH 6.5 in presence of CaCl2. It counts as functional, organism-based.
Data set [12] concerns Pseudomonas aeruginosa. In words: Antimicrobial activity against Pseudomonas aeruginosa ATCC 27853 assessed as reduction in bacterial growth at pH 6.5 in presence of MgCl2. It is filed as functional.

Regarding H-FLEHLIPHVIHGLVHAIHH-NH2, the minimal inhibitory concentration (MIC) (as a rule, the least concentration at which growth counts as inhibited) in [1] was > 64 µM; with Escherichia coli, > 64 µM; in the data set on Salmonella typhimurium [4] it was 16 µM; in the data set on Pseudomonas aeruginosa [5], > 64 µM; with Salmonella typhimurium [6], > 64 µM; in the data set on Pseudomonas aeruginosa [7], 2 µM. Moreover, the MIC with Staphylococcus aureus is > 64 µM; with Pseudomonas aeruginosa [12], 2 µM. In addition, the “fold change (FC)” value in the data set with Pseudomonas aeruginosa [2] is reported as 10. Further, the result with Pseudomonas aeruginosa [3] was inactive. In addition, the Activity in the data set on Lipopolysaccharide (LPS) is 22.9%; with Mus musculus [8], 1.15 10^3pg/ml; with Mus musculus [9], 8.14 10^2pg/ml. Moreover, the 50% inhibitory concentration (IC50) (commonly the point on the concentration scale where inhibition reaches its midpoint) at 24 h in [10] was > 128 µM. The outcome in the data set on Pseudomonas aeruginosa [11] was Active.
